Source: patent publication US20100324059A1, “PHARMACEUTICAL COMPOSITIONS USEFUL FOR TREATING HCV” (Gilead Sciences, Inc., priority 2009, published 2010)

Test system: HCV genotype 1b replicon cells (Huh-luc)
Assay: Antiviral combination study of Compound 1 and Compound 2 in the HCV 1b replicon system (luciferase readout, MacSynergy II analysis)
Assay type: cell-based
Description: HCV genotype 1b replicon cells (Huh-luc) were obtained from Reblikon (Mainz, Germany). The replicon in these cells is designated I389luc-ubi-neo/NS3-3′/ET and encodes a selectable resistance marker (neomycin phosphotransferase) as well as the firefly luciferase reporter gene. Huh-luc cells were maintained in Dulbecco's Modified Eagle's Medium (DMEM; GIBCO, Carlsbad, Calif.) supplemented with 10% fetal bovine serum (FBS; Hyclone, Logan, Utah) and 0.5 mg/mL of G-418 (GIBCO). Cells were passaged twice a week and maintained at subconfluent levels.
Replicon cells were seeded in 96-well plates at a density of 5×10^3 cells per well in 100 μL of DMEM culture medium, excluding G-418. Compounds 1 and 2 were serially diluted 1:3 in 100% DMSO (Sigma). These serial dilutions were added to the cells at a 1:200 dilution to achieve a final concentration of 0.5% DMSO in a total volume of 200 μL. Plates were incubated at 37° C. for 3 days, after which culture media were removed and cells were lysed and assayed for luciferase activity using a commercial luciferase assay (Promega, Madison, Wis.). HCV replication levels in drug-treated samples were expressed as a percentage of those in untreated controls (defined as 100%), and data were fit to the logistic dose response equation y=a/(1+(x/b)c) using XLFit4 software (IDBS, Emeryville, Calif.). EC50 values were calculated from the resulting equations as described previously (Delaney, W. E., et al., Antimicrobial Agents Chemotherapy, 45(6):1705-1713 (2001)).
Replicon cells were seeded in 96-well plates at a density of 5×10^3 cells per well in 100 μL of culture medium. Compounds 1 and 2 were serially diluted in 100% DMSO as described above and added in a matrix format to 96-well plates, achieving a defined set of different drug concentrations and ratios in a final volume of 200 μL and a final DMSO concentration of 0.5%. For each individual drug, the EC50 value was selected as the midpoint for the concentration range tested. Cells were incubated for three days and analyzed for luciferase expression as indicated above. For the combination study, two independent experiments were performed in triplicate.
The calculated volumes of surface deviations are expressed in nM^2%. Per Prichard and Shipman, combination effects are defined as: • Highly synergistic if volumes >100 nM^2. • Moderately synergistic if volumes are >50 and ≦100 nM^2. • Additive if volumes are >−50 nM^2 and ≦50 nM^2. • Moderately antagonistic if volumes are >−100 nM^2 and ≦−50 nM^2. • Antagonistic if volumes are ≦−100 nM^2.

[1] = drug used in combination with Compound 1, 3 days, mean ± standard deviation of two or three independent experiments in triplicate

Fc1ccccc1-c1nc2ccn(Cc3ccc(-c4ccc(C(F)(F)F)cc4C(F)(F)F)nn3)cc-2n1 [Compound 1, 5-({6-[2,4-bis(trifluoromethyl)phenyl]pyridazin-3-yl}methyl)-2-(2-fluorophenyl)-5H-imidazo[4,5-c]pyridine]
interaction (Compound 1 with Compound 2): moderate synergistic interaction

CCC[C@H](NC(=O)[C@@H]1[C@H]2CCC[C@H]2CN1C(=O)[C@@H](NC(=O)[C@@H](NC(=O)c1cnccn1)C1CCCCC1)C(C)(C)C)C(=O)C(=O)NC1CC1 [Compound 2, (1S,3aR,6aS)—N-[1(S)-[2-(Cyclopropylamino)oxalyl]butyl]-2-[N-(pyrazin-2-ylcarbonyl)-L-cyclohexylglycyl-3-methyl-L-valyl]perhydrocyclopenta[c]pyrrole-1-carboxamide]
Antagonism Volume [1]: 0 ± 0 nM^2 | Synergy Volume [1]: 79.5 ± 10.5 nM^2 | interaction (drug used in combination with Compound 1, classification per Prichard and Shipman): Moderate synergy
